Laboratory results from ChEMBL document CHEMBL3785084, “Rational modification of the lead molecule: Enhancement in the anticancer and dihydrofolate reductase inhibitory activity” (Bioorg Med Chem Lett, 2016).

Assays:
SK-MEL-5 = experiment: Cytotoxicity against human SK-MEL-5 cells assessed as cell growth at 10^-5 M after 48 hrs by sulforhodamine B assay; assay type: functional; settings: SK-MEL-5, 48 h, read-out: Activity
[1] = Cytotoxicity against human OVCAR8 cells assessed as cell growth at 10^-5 M after 48 hrs by sulforhodamine B assay; assay type: functional; settings: OVCAR-8, 48 h, read-out: Activity
[2] = Cytotoxicity against human UO31 cells assessed as cell growth at 10^-5 M after 48 hrs by sulforhodamine B assay; assay type: functional; settings: UO-31, 48 h, read-out: Activity
[3] = Cytotoxicity against human SF539 cells assessed as cell growth at 10^-5 M after 48 hrs by sulforhodamine B assay; assay type: functional; settings: SF-539, 48 h, read-out: Activity
ACHN = experiment: Cytotoxicity against human ACHN cells assessed as cell growth at 10^-5 M after 48 hrs by sulforhodamine B assay; assay type: functional; settings: read-out: Activity
NCI-H23 = experiment: Cytotoxicity against human NCI-H23 cells assessed as cell growth at 10^-5 M after 48 hrs by sulforhodamine B assay; assay type: functional; settings: NCI-H23, 48 h, read-out: Activity
T47D = experiment: Cytotoxicity against human T47D cells assessed as cell growth at 10^-5 M after 48 hrs by sulforhodamine B assay; assay type: functional; settings: read-out: Activity
[4] = Cytotoxicity against human SKOV3 cells assessed as cell growth at 10^-5 M after 48 hrs by sulforhodamine B assay; assay type: functional; settings: SK-OV-3, 48 h, read-out: Activity
[5] = Cytotoxicity against human Caki1 cells assessed as cell growth at 10^-5 M after 48 hrs by sulforhodamine B assay; assay type: functional; settings: CAKI-1, 48 h, read-out: Activity
SK-MEL-28 = experiment: Cytotoxicity against human SK-MEL-28 cells assessed as cell growth at 10^-5 M after 48 hrs by sulforhodamine B assay; assay type: functional; settings: SK-MEL-28, 48 h, read-out: Activity
NCI-H460 = experiment: Cytotoxicity against human NCI-H460 cells assessed as cell growth at 10^-5 M after 48 hrs by sulforhodamine B assay; assay type: functional; settings: NCI-H460, 48 h, read-out: Activity
[6] = Cytotoxicity against human LOXIMVI cells assessed as cell growth at 10^-5 M after 48 hrs by sulforhodamine B assay; assay type: functional; settings: LOX IMVI, read-out: Activity
SN12C = experiment: Cytotoxicity against human SN12C cells assessed as cell growth at 10^-5 M after 48 hrs by sulforhodamine B assay; assay type: functional; settings: read-out: Activity
NCI-H522 = experiment: Cytotoxicity against human NCI-H522 cells assessed as cell growth at 10^-5 M after 48 hrs by sulforhodamine B assay; assay type: functional; settings: NCI-H522, 48 h, read-out: Activity
Dihydrofolate reductase = target: T1, Dihydrofolate reductase (Homo sapiens, UniProt P00374); experiment: Inhibition of human DHFR assessed as conversion of dihydrofolic acid to tetrahydrfolic acid by enzyme immunoassay in presence of NADPH
T1 sequence (P00374 whole entry): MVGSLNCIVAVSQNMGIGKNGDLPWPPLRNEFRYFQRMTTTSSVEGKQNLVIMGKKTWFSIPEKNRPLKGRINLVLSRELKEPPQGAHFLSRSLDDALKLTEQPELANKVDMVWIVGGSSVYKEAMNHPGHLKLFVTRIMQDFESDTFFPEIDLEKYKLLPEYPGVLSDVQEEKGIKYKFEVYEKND

[7] = Cytotoxicity against human RXF393 cells assessed as cell growth at 10^-5 M after 48 hrs by sulforhodamine B assay; assay type: functional; settings: RXF 393, 48 h, read-out: Activity
[8] = Cytotoxicity against human HCC2998 cells assessed as cell growth at 10^-5 M after 48 hrs by sulforhodamine B assay; assay type: functional; settings: HCC 2998, 48 h, read-out: Activity
A549 = experiment: Cytotoxicity against human A549 cells assessed as cell growth at 10^-5 M after 48 hrs by sulforhodamine B assay; assay type: functional; settings: A549, 48 h, read-out: Activity
[9] = Cytotoxicity against human SNB75 cells assessed as cell growth at 10^-5 M after 48 hrs by sulforhodamine B assay; assay type: functional; settings: SNB-75, 48 h, read-out: Activity
786-0 = experiment: Cytotoxicity against human 786-0 cells assessed as cell growth at 10^-5 M after 48 hrs by sulforhodamine B assay; assay type: functional; settings: 786-0, 48 h, read-out: Activity
[10] = Cytotoxicity against human SF295 cells assessed as cell growth at 10^-5 M after 48 hrs by sulforhodamine B assay; assay type: functional; settings: SF-295, 48 h, read-out: Activity
[11] = Cytotoxicity against human RPMI8226 cells assessed as cell growth at 10^-5 M after 48 hrs by sulforhodamine B assay; assay type: functional; settings: RPMI-8226, 48 h, read-out: Activity
K562 = experiment: Cytotoxicity against human K562 cells assessed as cell growth at 10^-5 M after 48 hrs by sulforhodamine B assay; assay type: functional; settings: K562, 48 h, read-out: Activity
[12] = Cytotoxicity against human SW620 cells assessed as cell growth at 10^-5 M after 48 hrs by sulforhodamine B assay; assay type: functional; settings: SW-620, 48 h, read-out: Activity
SR = experiment: Cytotoxicity against human SR cells assessed as cell growth at 10^-5 M after 48 hrs by sulforhodamine B assay; assay type: functional; settings: read-out: Activity
CCRF-CEM = experiment: Cytotoxicity against human CCRF-CEM cells assessed as cell growth at 10^-5 M after 48 hrs by sulforhodamine B assay; assay type: functional; settings: read-out: Activity
MDA-MB-231 = experiment: Cytotoxicity against human MDA-MB-231 cells assessed as cell growth at 10^-5 M after 48 hrs by sulforhodamine B assay; assay type: functional; settings: MDA-MB-231, 48 h, read-out: Activity
[13] = Cytotoxicity against human NCI-ADR-RES cells assessed as cell growth at 10^-5 M after 48 hrs by sulforhodamine B assay; assay type: functional; settings: read-out: Activity
[14] = Cytotoxicity against human HOP92 cells assessed as cell growth at 10^-5 M after 48 hrs by sulforhodamine B assay; assay type: functional; settings: HOP-92, 48 h, read-out: Activity
EKVX = experiment: Cytotoxicity against human EKVX cells assessed as cell growth at 10^-5 M after 48 hrs by sulforhodamine B assay; assay type: functional; settings: read-out: Activity
NCI-H226 = experiment: Cytotoxicity against human NCI-H226 cells assessed as cell growth at 10^-5 M after 48 hrs by sulforhodamine B assay; assay type: functional; settings: NCI-H226, 48 h, read-out: Activity
[15] = Cytotoxicity against human HCT15 cells assessed as cell growth at 10^-5 M after 48 hrs by sulforhodamine B assay; assay type: functional; settings: HCT-15, 48 h, read-out: Activity
M14 = experiment: Cytotoxicity against human M14 cells assessed as cell growth at 10^-5 M after 48 hrs by sulforhodamine B assay; assay type: functional; settings: M14, 48 h, read-out: Activity
MDA-MB-435 = experiment: Cytotoxicity against human MDA-MB-435 cells assessed as cell growth at 10^-5 M after 48 hrs by sulforhodamine B assay; assay type: functional; settings: MDA-MB-435, 48 h, read-out: Activity
[16] = Cytotoxicity against human MOLT4 cells assessed as cell growth at 10^-5 M after 48 hrs by sulforhodamine B assay; assay type: functional; settings: MOLT-4, 48 h, read-out: Activity
[17] = Cytotoxicity against human HL-60(TB) cells assessed as cell growth at 10^-5 M after 48 hrs by sulforhodamine B assay; assay type: functional; settings: HL-60, 48 h, read-out: Activity

SMILES	growth at 10 µM (SK-MEL-5) [%]	growth at 10 µM [1] [%]	growth at 10 µM [2] [%]	growth at 10 µM [3] [%]	growth at 10 µM (ACHN) [%]	growth at 10 µM (NCI-H23) [%]	growth at 10 µM (T47D) [%]	growth at 10 µM [4] [%]	growth at 10 µM [5] [%]	growth at 10 µM (SK-MEL-28) [%]	growth at 10 µM (NCI-H460) [%]	growth at 10 µM [6] [%]	growth at 10 µM (SN12C) [%]	growth at 10 µM (NCI-H522) [%]	growth at 10 µM [7] [%]	growth at 10 µM [8] [%]	growth at 10 µM (A549) [%]	growth at 10 µM [9] [%]	growth at 10 µM (786-0) [%]	growth at 10 µM [10] [%]	other results
O=C1NC(=O)C(=Cc2cn(CC(O)Cn3cc(C=C4C(=O)NC(=O)NC4=O)c4ccccc43)c3ccccc23)C(=O)N1	101	117	86	108	105	94.7	91.8	102	101	111	55.1	98	107	97.1	89.1	94.6	85.9	90.2	91.3	103	IC50 (Dihydrofolate reductase): 5000 nM; growth at 10 µM [11]: 98.5%; growth at 10 µM (K562): 107%; growth at 10 µM [12]: 102%; growth at 10 µM (SR): 96.9%; growth at 10 µM (CCRF-CEM): 105%; growth at 10 µM (MDA-MB-231): 105%; growth at 10 µM [13]: 99.5%; growth at 10 µM [14]: 101%; growth at 10 µM (EKVX): 101%; growth at 10 µM (NCI-H226): 108%; growth at 10 µM [15]: 103%; growth at 10 µM (M14): 98.7%; growth at 10 µM (MDA-MB-435): 109%; growth at 10 µM [16]: 110%; growth at 10 µM [17]: 107%
CC1=NN(c2cccc(Cl)c2)C(=O)/C1=C\c1cn(CC(O)Cn2cc(/C=C3\C(=O)N(c4cccc(Cl)c4)N=C3C)c3ccccc32)c2ccccc12	101	115	86.4	94.2	107	105	88	110	98.8	109	111	102	99.7	97.6	116	102	94.1	93.4	110	111	growth at 10 µM [11]: 109%; growth at 10 µM (K562): 101%; growth at 10 µM [12]: 108%; growth at 10 µM (SR): 96.3%; growth at 10 µM (CCRF-CEM): 106%; growth at 10 µM (MDA-MB-231): 97.2%; growth at 10 µM [13]: 111%; growth at 10 µM [14]: 122%; growth at 10 µM (EKVX): 101%; growth at 10 µM (NCI-H226): 109%; growth at 10 µM [15]: 106%; growth at 10 µM (M14): 101%; growth at 10 µM (MDA-MB-435): 106%; growth at 10 µM [16]: 104%; growth at 10 µM [17]: 109%
COc1cc(/C=C2\C(=O)Nc3ccccc32)cc(OC)c1O	45.7	78.5	60	68.8	77	66.4	49.6	93.5	37.7	90.2	40.1	36.5	77	8.78	71.3	78.8	67.9	23.1	83.2	60.6	IC50 (Dihydrofolate reductase): 500 nM; growth at 10 µM [11]: 46.6%; growth at 10 µM (K562): 7.58%; growth at 10 µM [12]: 31.5%; growth at 10 µM (SR): -10.3%; growth at 10 µM (CCRF-CEM): 26.7%; growth at 10 µM (MDA-MB-231): 63.1%; growth at 10 µM [13]: 19.1%; growth at 10 µM (EKVX): 110%; growth at 10 µM [15]: 61.6%; growth at 10 µM (M14): 53.6%; growth at 10 µM (MDA-MB-435): -25.3%; growth at 10 µM [16]: 0.62%; growth at 10 µM [17]: 1.88%
